# In US6969702B2, “Compounds and methods for increasing neurogenesis” (priority 2002, dated 2005):
# Marks after values point to notes of the source that are not given here. Square brackets hold non-standard residues; d marks the D form. Peptide text beside a SMILES is read from it.
# How the values were obtained:
# Adult neural stem cells = test: Flow cytometry for early neuronal marker Doublecortin; conditions: Table 6, 100 nM; for % Doublecortin-positive cells: 4 days
# [1] = tested on: cAMP activation in mouse adult neural stem cells; test: cAMP detection (HitHunter EFC Cyclic AMP Chemiluminescence Assay); conditions: for Fold Induction cAMP: vs vehicle
# [2] = tested on: mouse adult neural stem cells; test: ATP-assay: proliferation (ATP levels) of neurosphere-derived cells; conditions: for Fold Induction ATP: vs vehicle
# [3] = Table 2, 10 nM (cAMP concentration)
# [4] = Mus musculus, Neural stem cell, 96 h, read-out: Fold Induction ATP
# [5] = Table 2, 100 nM (cAMP concentration)
# [6] = Table 2, 1 nM (cAMP concentration)
smiles,measurement,setting,value
C[C@H](NC(=O)[C@@H](Cc1c[nH]c2ccccc12)NC(=O)[C@@H](N)Cc1c[nH]cn1)C(=O)N[C@@H](Cc1c[nH]c2ccccc12)C(=O)N[C@H](Cc1ccccc1)C(=O)N[C@@H](CCCCN)C(N)=O [(D-Trp7.Ala8.D-Phe10)-α-Melanocyte stimulating hormone F: 6-11/GHRP] (H-H[dW]AW[dF]K-NH2; N-terminus and C-terminus assumed),% Doublecortin-positive cells,Adult neural stem cells,5.3%
NC(=O)CC[C@@H]1NC(=O)[C@H](Cc2ccccc2)NC(=O)[C@H](Cc2ccc(O)cc2)NC(=O)CCSSC[C@@H](C(=O)N2CCC[C@H]2C(=O)N[C@H](CCCN=C(N)N)C(=O)NCC(N)=O)NC(=O)[C@H](CC(N)=O)NC1=O [DDAVP],cAMP (pmol/well),[1]; [3],0.27 ± 0.02 pmol/well
same,Fold Induction cAMP,"[1]; Table 2, 10 nM",1.9*** (10 nM) fold
same,% Doublecortin-positive cells,Adult neural stem cells,4.6%
same,Fold Induction (Doublecortin-positive cells),Adult neural stem cells; vs EGF/FGF,1.8 fold
same,ATP (nM ATP/well),"[2]; Table 2, 100 nM, 4 days",11.5 ± 1.4 nM ATP/well
same,Fold Induction ATP,"[2]; Table 2, 100 nM, 4 days",1.5* fold
"CCCC[C@H](NC(=O)[C@H](CO)NC(=O)[C@H](CC(N)=O)NC(=O)[C@H](CC(C)C)NC(=O)[C@H](Cc1c[nH]cn1)NC(=O)[C@H](CCCCN)NC(=O)CNC(=O)[C@H](CC(C)C)NC(=O)[C@H](CC(N)=O)NC(=O)[C@H](Cc1c[nH]cn1)NC(=O)[C@H](CCCC)NC(=O)[C@H](CC(C)C)NC(=O)[C@H](CCC(N)=O)NC(=O)[C@@H](NC(=O)[C@H](CCC(=O)O)NC(=O)[C@H](CO)NC(=O)[C@@H](NC(=O)[C@@H](N)CO)C(C)C)[C@@H](C)CC)C(=O)N[C@@H](CCC(=O)O)C(=O)N[C@@H](CCCNC(=N)N)C(=O)N[C@H](C(=O)N[C@@H](CCC(=O)O)C(=O)N[C@@H](Cc1c[nH]c2ccccc12)C(=O)N[C@@H](CC(C)C)C(=O)N[C@@H](CCCNC(=N)N)C(=O)N[C@@H](CCCCN)C(=O)N[C@@H](CCCCN)C(=O)N[C@@H](CC(C)C)C(=O)N[C@@H](CCC(N)=O)C(=O)N[C@@H](CC(=O)O)C(=O)N[C@H](C(=O)N[C@@H](Cc1c[nH]cn1)C(=O)N[C@@H](CC(N)=O)C(=O)N[C@@H](Cc1ccc(O)cc1)C(N)=O)C(C)C)C(C)C [[Nle8,18, Tyr34]-Parathyroid Hormone (1-34) Amide (Human)]",cAMP (pmol/well),[1]; [3],0.16 ± 0.05 pmol/well
same,Fold Induction cAMP,"[1]; Table 2, 10 nM",2.6* (10 nM) fold
same,ATP (nM ATP/well),"[2]; Table 2, 1000 nM, 4 days",23.5 ± 2.7 nM ATP/well
same,Fold Induction ATP,"[2]; Table 2, 1000 nM, 4 days",1.7** fold
"COc1ccc(C2CNC(=O)C2)cc1OC1CCCC1 (stereo not drawn) [Rolipram, rolipram]",fold induction at 0.1 µM,"[1]; Mus musculus, Neural stem cell, 0.25 h, read-out: Fold Induction cAMP",3.8
same,cAMP (pmol/well),"[1]; Table 1, 100 nM, after 15 minutes",0.09 ± 0.03 pmol/well
same,fold induction at 0.1 µM,[2]; [4],1.1
same,ATP (nM ATP/well),"[2]; Table 1, 100 nM, 4 days in culture",10.4 ± 0.4 nM ATP/well
same,proliferation of neural stem cells,"[2]; cAMP activators, GPCR-independent",increase
"CC(C)C[C@H](NC(=O)CN(C)C(=O)[C@H](Cc1ccccc1)NC(=O)[C@H](Cc1ccccc1)NC(=O)[C@H](CCC(N)=O)NC(=O)[C@H](CCC(N)=O)NC(=O)[C@@H]1CCCN1C(=O)[C@H](CCCCN)NC(=O)[C@@H]1CCCN1C(=O)[C@@H](N)CCCNC(=N)N)C(=O)N[C@@H](CCS(C)(=O)=O)C(N)=O [[Sar9, Met (0)11]-Substance P]",cAMP (pmol/well),[1]; [5],0.16 ± 0.05 pmol/well
same,ATP (nM ATP/well),"[2]; Table 2, 100 nM, 4 days",39.7 ± 2.1 nM ATP/well
CSCC[C@H](NC(=O)[C@H](CO)NC(=O)[C@H](Cc1ccc(O)cc1)NC(=O)[C@@H](N)CO)C(=O)N[C@@H](CCC(=O)O)C(=O)N[C@@H](Cc1cnc[nH]1)C(=O)N[C@@H](Cc1ccccc1)C(=O)N[C@@H](CCCNC(=N)N)C(=O)N[C@@H](Cc1c[nH]c2ccccc12)C(=O)NCC(=O)N[C@@H](CCCCN)C(=O)N1CCC[C@H]1C(=O)N[C@H](C(=O)NCC(=O)N[C@@H](CCCCN)C(=O)N[C@@H](CCCCN)C(=O)N[C@@H](CCCNC(=N)N)C(=O)N[C@@H](CCCNC(=N)N)C(=O)N1CCC[C@H]1C(=O)N[C@H](C(=O)N[C@@H](CCCCN)C(=O)N[C@H](C(=O)N[C@@H](Cc1ccc(O)cc1)C(=O)N1CCC[C@H]1C(=O)N[C@@H](CC(N)=O)C(=O)NCC(=O)N[C@@H](C)C(=O)N[C@@H](CCC(=O)O)C(=O)N[C@@H](CC(=O)O)C(=O)N[C@@H](CCC(=O)O)C(=O)N[C@@H](CO)C(=O)N[C@@H](C)C(=O)N[C@@H](CCC(=O)O)C(=O)N[C@@H](C)C(=O)N[C@@H](Cc1ccccc1)C(=O)N1CCC[C@H]1C(=O)N[C@@H](CC(C)C)C(=O)N[C@@H](CCC(=O)O)C(=O)N[C@@H](Cc1ccccc1)C(=O)O)C(C)C)C(C)C)C(C)C [ACTH (Human)] (H-SYSMEHFRWGKPVGKKRRPVKVYPNGAEDESAEAFPLEF-OH),Fold Induction cAMP,"[1]; Table 2, 100 nM",1.8** (100 nM) fold
same,Fold Induction ATP,"[2]; Table 2, 1000 nM, 4 days",1.2* fold
"CC(C)C[C@H](NC(=O)[C@H](CC(C)C)NC(=O)[C@@H](Cc1c[nH]c2ccccc12)NC(=O)[C@H](Cc1ccccc1)NC(=O)[C@@H](Cc1c[nH]c2ccccc12)NC(=O)[C@H](CCC(N)=O)NC(=O)[C@H](CCC(N)=O)NC(=O)[C@@H]1CCCN1C(=O)[C@H](CCCCN)NC(=O)[C@@H]1CCCN1C(=O)[C@@H](CCCNC(=N)N)NC(=O)[C@@H]1CCCN1C(=O)CNC(=O)[C@H](CC(C)C)NC(=O)[C@H](CC(C)C)NC(=O)[C@H](Cc1ccc(O)cc1)NC(=O)CNC(=O)[C@H](C)NC(=O)[C@H](CO)NC(=O)[C@H](CC(N)=O)NC(=O)[C@H](CC(C)C)NC(=O)[C@@H](NC(=O)[C@H](Cc1c[nH]c2ccccc12)NC(=O)CN)[C@@H](C)O)C(N)=O [Galanin (1-13)-Spantide-Amide, M40] (H-GWTLNSAGYLLGP[dR]PKPQQ[dW]F[dW]LL-NH2; N-terminus assumed)",cAMP (pmol/well),[1]; [6],0.82 ± 0.08 pmol/well
same,ATP (nM ATP/well),"[2]; Table 2, 100 nM, 4 days",7.10 ± 0.5 nM ATP/well
"CC(C)C[C@H](NC(=O)[C@@H]1CCCN1C(=O)[C@H](CO)NC(=O)[C@H](Cc1ccccc1)NC(=O)CNC(=O)[C@@H]1CCCN1C(=O)[C@@H]1CCCN1C(=O)[C@@H](N)CCCNC(=N)N)C(=O)O [[Des-Arg9, Leu8]-Bradykinin]",cAMP (pmol/well),[1]; [6],0.09 ± 0.02 pmol/well
same,Fold Induction cAMP,"[1]; Table 2, 1 nM",2.6* (1 nM) fold
same,ATP (nM ATP/well),"[2]; Table 2, 10 nM, 4 days",9.8 ± 0.4 nM ATP/well
same,Fold Induction ATP,"[2]; Table 2, 10 nM, 4 days",1.1* fold
CSCC[C@H](NC(=O)[C@H](CO)NC(=O)[C@H](Cc1ccc(O)cc1)NC(=O)[C@@H](N)CO)C(=O)N[C@@H](CCC(=O)O)C(=O)N[C@@H](Cc1c[nH]cn1)C(=O)N[C@@H](Cc1ccccc1)C(=O)N[C@@H](CCCNC(=N)N)C(=O)N[C@@H](Cc1c[nH]c2ccccc12)C(=O)NCC(=O)N[C@@H](CCCCN)C(=O)N1CCC[C@H]1C(=O)N[C@H](C(=O)NCC(=O)N[C@@H](CCCCN)C(=O)N[C@@H](CCCCN)C(=O)N[C@@H](CCCNC(=N)N)C(=O)N[C@@H](CCCNC(=N)N)C(=O)N1CCC[C@H]1C(=O)N[C@H](C(=O)N[C@@H](CCCCN)C(=O)N[C@H](C(=O)N[C@@H](Cc1ccc(O)cc1)C(=O)N1CCC[C@H]1C(=O)N[C@@H](CC(N)=O)C(=O)NCC(=O)N[C@@H](C)C(=O)N[C@@H](CCC(=O)O)C(=O)N[C@@H](CC(=O)O)C(=O)N[C@@H](CCC(=O)O)C(=O)N[C@@H](CO)C(=O)N[C@@H](C)C(=O)N[C@@H](CCC(=O)O)C(=O)N[C@@H](C)C(=O)N[C@@H](Cc1ccccc1)C(=O)N1CCC[C@H]1C(=O)N[C@@H](CC(C)C)C(=O)N[C@@H](CCC(=O)O)C(=O)N[C@@H](Cc1ccccc1)C(=O)O)C(C)C)C(C)C)C(C)C [ACTH (Human)] (H-SYSMEHFRWGKPVGKKRRPVKVYPNGAEDESAEAFPLEF-OH; N-terminus and C-terminus assumed),cAMP (pmol/well),[1]; [5],0.11 ± 0.02 pmol/well
same,ATP (nM ATP/well),"[2]; Table 2, 1000 nM, 4 days",15.7 ± 1.3 nM ATP/well
"CC[C@H](C)[C@H](NC(=O)[C@H](CO)NC(=O)[C@H](CC(N)=O)NC(=O)[C@H](CC(C)C)NC(=O)[C@H](Cc1ccc(O)cc1)NC(=O)[C@H](CCCCN)NC(=O)[C@H](CCCCN)NC(=O)[C@@H](NC(=O)[C@H](C)NC(=O)[C@H](CCSC)NC(=O)[C@H](CCC(N)=O)NC(=O)[C@H](CCCCN)NC(=O)[C@H](CCCNC(=N)N)NC(=O)[C@H](CC(C)C)NC(=O)[C@H](CCCNC(=N)N)NC(=O)[C@@H](NC(=O)[C@H](Cc1ccc(O)cc1)NC(=O)[C@H](CC(N)=O)NC(=O)[C@H](CC(=O)O)NC(=O)[C@@H](NC(=O)[C@H](Cc1ccccc1)NC(=O)[C@@H](NC(=O)[C@H](C)NC(=O)[C@H](CC(=O)O)NC(=O)[C@H](CO)NC(=O)[C@@H](N)Cc1c[nH]cn1)C(C)C)[C@@H](C)O)[C@@H](C)O)C(C)C)C(=O)N[C@@H](CC(C)C)C(=O)N[C@@H](CC(N)=O)C(N)=O [Vasoactive Intestinal Peptide (Human, Porcine, Rat)]",cAMP (pmol/well),[1]; [5],0.39 ± 0.12 pmol/well
same,ATP (nM ATP/well),"[2]; Table 2, 1000 nM, 4 days",20.6 ± 1.2 nM ATP/well
CC(C)C[C@H](NC(=O)[C@H](Cc1ccccc1)NC(=O)CNC(=O)[C@H](NC(=O)[C@@H](N)Cc1ccc(O)cc1)[C@H](C)O)C(=O)N[C@H](C(=O)O)[C@@H](C)O [DTLET],% Doublecortin-positive cells,Adult neural stem cells,4.1%
same,ATP (nM ATP/well),"[2]; Table 2, 10 nM, 4 days",9.2 ± 0.9 nM ATP/well
"Oc1ccc2c3c1O[C@H]1c4[nH]c5c(c4C[C@@]4(O)[C@@H](C2)N(CC2CC2)CC[C@]314)C[C@@]1(O)[C@H]2Cc3ccc(O)c4c3[C@@]1(CCN2CC1CC1)[C@H]5O4 [Nor-Binaltorphimine, nor-Binaltorphimine]",fold induction at 10 pM,"[1]; Mus musculus, Neural stem cell, read-out: Fold Induction cAMP",6.3
same,cAMP (pmol/well),"[1]; Table 2, 0.01 nM (bracketed cAMP concentration)",6.10 ± 3.72 pmol/well
same,fold induction at 0.0001 µM,[2]; [4],1.4
same,ATP (nM ATP/well),"[2]; Table 2, 0.1 nM, 4 days",19.4 ± 3.2 nM ATP/well
